Data taken from patent US12121522B2, “Methods of treating cancer with an mTOR inhibitor” (Revolution Medicines, Inc., priority 2022, dated 2024).
“And” between values parts separate entries of the source, which are not always exact repeats. Identical values can stand only once.

Experiments:
[1] = tested on: tumor p4EBP1; assay: PK-pharmacodynamics of tumor p4EBP1 and pS6RP in MCF7 tumor-bearing mice; type: in vivo, mouse
From the text: FIGS. 4A-4C show Pharmacokinetic-Pharmacodynamic Profile for RMC-5552 Modulation of Tumor p4EBP1 and pS6RP in MCF7 Tumor Bearing Athymic Nude Mice. Abbreviations: IP=intraperitoneal; p4EBP1=phosphorylated eukaryotic translation initiation factor 4E-binding protein 1; PK=pharmacokinetic; pS6RP=phosphorylated S6 ribosomal protein; u=unbound. […] Data represent means±standard errors (n=3).
Colors of symbols denote time of tissue harvest following IP administration of a single dose of RMC-5552. […] Data represent means standard errors (n=3).
The in vivo PK-pharmacodynamic relationship for inhibition of activated mTOR pathway signaling of RMC-5552 as a single agent was determined in the breast cancer MCF7 and HCC-1954 PIK3CA mutant CDX models.
Consistent with inhibition of mTORC1 signaling in vitro, IP administration of RMC-5552 to nude mice produced a dose and plasma concentration-dependent-inhibition of tumor p4EBP1 and pS6RP (a direct substrate of P70S6K) in PI3K mutant breast cancer MCF7 xenograft models FIG. 5. Inhibition of p4EBP1 was maximal at 24 to 48 hours after treatment.

[2] = tested on: advanced relapsed/refractory solid tumors; assay: Clinical efficacy (RECIST v1.1), study RMC-5552-001; type: in vivo, human
Description: Refer to FIG. 7 for a waterfall plot of best response in subjects treated at majority dose of 6 mg or 8 mg IV weekly (one hour infusion).
Subjects were evaluated at doses of 6 mg and higher. […] One patient discontinued treatment due to clinical progression without post-baseline scans. Three patients experienced radiographic progressive disease (PD).

[3] = 13 efficacy-evaluable patients at ≥6 mg
[4] = 27 efficacy-evaluable subjects, majority doses 6 mg or 8 mg IV weekly
[5] = endometrial PIK3CA, PTEN, TSC2, 8 mg QW
[6] = uterine CaSarc TSC1 LOF, 10 mg single dose, 6 mg QW

In the case of `CO[C@H]1C[C@@H]2CC[C@@H](C)[C@@](O)(O2)C(=O)C(=O)N2CCCC[C@H]2C(=O)O[C@H]([C@H](C)C[C@@H]2CC[C@@H](OC(=O)NCCOCCOCCOCCOCCOCCOCCOCCOCCC(=O)N3CCc4cc(Cn5nc(-c6ccc7oc(N)nc7c6)c6c(N)ncnc65)ccc4C3)[C@H](OC)C2)C[C@@H](O)[C@H](C)/C=C(\C)[C@@H](O)[C@@H](OC)C(=O)[C@H](C)C[C@H](C)/C=C/C=C/C=C/1C` [RMC-5552], the “maximum level of inhibition of p4EBP1 relative to control” value ([1]; MCF7, single IP dose) is reported as greater than 90%, the EC50 ([1]; unbound plasma concentration, MCF7, read-out: in vivo EC50 for inhibition of p4EBP1) is reported as 0.22 nM and the “best response of stable disease (SD), subjects” value [2, 3] is reported as 8. The “confirmed partial response (PR), subjects” value [2, 3] was 1, the “discontinued due to clinical progression without post-baseline scans, patients” value [2, 3] was “One” and the “radiographic progressive disease (PD), patients” value [2, 3] was “Three”. For the same compound, the “Disease Control Rate (DCR)” value [2, 4] was 74.1%, the “subjects with confirmed partial response” value [2, 4] was “one” and the “subjects with stable disease as best response” value [2, 4] was 19. The RECIST reduction ([2]; 67F NSCLC STK11, TSC2, KRAS L19F, 8 mg QW) was 4% reduction, the RECIST reduction ([2]; 76F NSCLC BRAF fusion, 10 mg single dose, 6 mg QW) was 22% and the “reduction in sum of target lesions (RECIST), subject with confirmed PR” value ([2]; H&N (salivary gland) cancer, PTEN mutation, 12 mg single dose then 6 mg QW) was 77.6% and 77%. The “subjects with Partial Response (PR)” value ([2]; cancer with PTEN mutation) was 1, the “CA125, nadir” value [2, 5] was “to nadir of 254; 9+ months” and the “CA125, peak” value [2, 5] was “CA125 from peak of 1465”. For the same compound, the RECIST reduction [2, 5] was 7% reduction, the “subjects with Partial Response (PR)” value ([2]; head and neck cancer, PTEN mutation) was 1 and the “RECIST increase (mixed)” value ([2]; ovarian CA TSC1 LOF, 6 mg QW) was 19% increase. For the same compound, the “reduction in CA125” value ([2]; ovarian CA TSC1 LOF, 6 mg QW) was 72% reduction in CA125, the “reduction in FDG avidity by PET/CT” value ([2]; ovarian CA TSC1 LOF, 6 mg QW) was “Strong: 50% reduction in” and the “reduction in tumor size, 1 subject” value ([2]; salivary gland cancer) was 63%. The RECIST reduction [2, 6] was 4.4% and the “reduction in CA125” value [2, 6] was “Strong: 37% reduction in”.
